Measurements taken from patent US11246816B2, “Shampoo compositions comprising a chelant” (The Procter & Gamble Company, priority 2016, dated 2022).

Legend:
[1] = Log P, n-octanol/water partition coefficient; type: physicochemical
From the text: The term log P is the n-octanol/water partition coefficients of the material.
The copper to be removed is inside the hair and the chelant needs to penetrate inside hair and form a strong copper-chelant complex. This copper-chelant complex needs to be water soluble and thus easily removed during the rinsing process. […] These are log P, the octanol/water partitioning coefficient, and the molecular weight of the chelant. Both are related to the ability of the chelant to penetrate into hair and also form a water soluble copper-chelant complex

[2] = log of formation constant of complex with copper; cited from earlier work
[3] = Copper content of colored hair switches after repeated shampoo wash cycles (ICP-OES); details: clarifying shampoo containing the chelant, 20 cycles, copper content of hair compared to same treatment with shampoo without chelant
Protocol: The copper removing performance of the shampoo composition is determined by treating hair with clarifying shampoo containing the corresponding chelant for 20 cycles and comparing the copper content of the hair compared to the same treatment using shampoo without the chelant.
All testing are performed on colored hair switches (see Method of Measurement of Copper on Hair below) weighing approximately 4.0 grams and having a length of approximately 6 inches. The hair switches are commercially available from IHIP (International Hair Importers). Three hair switches per shampoo composition are used. An amount of […] of shampoo is spread via a syringe onto separate hair switch. That is, the dosage is 0.10 g of shampoo per g of hair. Each application consists of adding shampoo to the hair, milking for 30 seconds followed by rinsing for 30 seconds. Shampoo is then reapplied (0.1 g/g), milked for 30 seconds and rinsed for 30 seconds. Excess water is squeezed from the hair switches and left to air dry or treated with a rinse-off conditioner and/or a leave-on treatment composition. This protocol is repeated for a number of times/cycles (as indicated in the tables below, which describe the details of hair treatments).
The following test method is used to assess the ability of the compositions and regimens to remove copper from the hair and to inhibit copper deposition onto the hair.
Hair switches are colored once with an oxidative hair colorant. An extra blonde shade is used for the testing. The hair switches are washed for 10 or 20 repeat wash cycles in tap water containing 7 grains per gallon water hardness (Ca/Mg) and 0.06 μg/g copper ions. Each wash cycle consists of two applications of 0.1 g/g a shampoo to the hair switches. Each application consists of adding shampoo to the hair, milking for 30 secs followed by rinsing for 30 secs. Shampoo is then reapplied 0.1 g/g, milked for 30 secs, rinsed for 30 secs and then dried in a heat box (60° C.) until dry.
Samples of 100 mg of hair are digested overnight with 2 ml of high purity concentrated nitric acid. The digestive mixture also contains 150 μL of 100 μg/g Yttrium internal standard (Inorganic Ventures, Christianburg, Va., USA). Following digestion, samples are heated to 70-80° C. for one hour, cooled to room temperature and diluted to 15 mL with deionized water. Copper content of the hair switches is determined by inductively coupled plasma atomic spectroscopy (ICP-OES)). For each leg, 3 different samples are analyzed.
In order to minimize the variability of the resulting copper content on hair that is related to (a) lot-to-lot viariability due to hair switches and (b) day-to-day variability of the water used during shampoo and conditioner treatments, a single lot of hair switches is used for each experimental series and a separate control experiment/treatment is run for each experimental series (see below).

SMILES	logP [1]	Log KML Cu [2]	Copper Removing Performance from Shampoo [3]
Nc1cc(C(=O)O)nc(C(=O)O)c1 [4-Aminopyridine-2,6-dicarboxylic acid, 4-aminopyridine-2,6-dicarboxylic acid]	0	11.4	
Cc1cccc(C(=O)O)n1 [6-Methyl Picolinic Acid, 6-methylpyridine-2-carboxylic acid]	1	7.1	35%
O=C(O)c1cc(O)cc(C(=O)O)n1 [Chelidamic Acid, chelidamic acid]	0.6	12.2	35%
O=C(O)c1cccc(C(=O)O)n1 [Dipicolinic Acid, dipicolinic acid]	0.8	9.1	40%
CCCCc1ccc(C(=O)O)nc1 [Fusaric Acid, fusaric acid]	2.6		
O=C(O)c1ccccn1 [Picolinic Acid, picolinic acid]	0.7	7.9	50%
O=C(O)c1ccc2ccccc2n1 [Quinaldic Acid, quinaldic acid]	2.1	5.9	35%
O=C(O)c1cccnc1C(=O)O [Quinolinic Acid, quinolinic acid]	0.4		50%
